Source: the Deep4Chem optical property database

Assay: solvent given as SMILES

Compound: CC(C)(C)NC1=C2C=CC=[N+]2[B-](F)(F)n2cccc21
- emission maximum (in C1CCCCC1): 503 nm
- emission maximum (in CC(C)=O): 492 nm
- emission maximum (in CCO): 494 nm
- emission maximum (in CCOC(C)=O): 498 nm
- emission maximum (in CO): 491 nm
- emission maximum (in OCC(F)(F)F): 497.5 nm

Compound: CCOC(=O)c1cc2ccc3ccccc3c2c(C#N)c1N
- emission maximum (in Cc1ccccc1): 461 nm

Compound: CSc1cc(-c2cc3cc4c5c(c3oc2=O)CCCN5CCC4)oc(=O)c1C#N
- emission maximum (in C1CCOC1): 580 nm
- emission maximum (in CC#N): 603 nm
- emission maximum (in CC(C)=O): 596 nm
- emission maximum (in CCOC(C)=O): 575 nm
- emission maximum (in CN(C)C=O): 612 nm
- emission maximum (in CO): 601 nm
- emission maximum (in CS(C)=O): 616 nm
- emission maximum (in Cc1ccccc1): 553 nm
- emission maximum (in ClC(Cl)Cl): 570 nm
- emission maximum (in ClCCl): 586 nm

Compound: CC(C)(C)c1ccc(-n2c(-c3ccc(-c4ccc(-c5c(-c6ccccc6)nc6ccccn56)cc4)cc3)nc3c4ccccc4c4ccccc4c32)cc1
- emission maximum (in ClCCl): 426 nm

Compound: CC1(C)c2ccccc2N(c2ccccc2)c2ccc(-c3nc(-c4ccccc4)nc(-c4ccccc4)n3)cc21
- emission maximum (in Cc1ccccc1): 430.68 nm
- emission maximum (in O=P(c1ccccc1)(c1ccccc1)c1ccccc1Oc1ccccc1P(=O)(c1ccccc1)c1ccccc1): 452 nm

Compound: CCN(CC)c1ccc2cc(-c3ccc(S(C)(=O)=O)cc3)oc(=O)c2c1
- emission maximum (in CC(C)=O): 487 nm
- emission maximum (in CCCCCC): 419 nm
- emission maximum (in CCCCO): 476 nm
- emission maximum (in CCCO): 480 nm
- emission maximum (in CCO): 485 nm
- emission maximum (in CCOC(C)=O): 465 nm
- emission maximum (in CN(C)C=O): 499 nm
- emission maximum (in CO): 489 nm
- emission maximum (in ClC(Cl)Cl): 456 nm

Compound: CN(C)CCCN1c2ccccc2CCc2ccc(Cl)cc21
- emission maximum (in CC#N): 348 nm
- emission maximum (in CO): 353 nm
- emission maximum (in O): 400 nm

Compound: c1ccc(N(c2ccccc2)c2ccc3c4cccc5c(N(c6ccccc6)c6ccccc6)ccc(c6cccc2c63)c54)cc1
- emission maximum (in C1CCCCC1): 531 nm
- emission maximum (in C1CCOC1): 545 nm
- emission maximum (in CC#N): 548 nm
- emission maximum (in Cc1ccccc1): 541 nm
- emission maximum (in ClCCl): 547 nm

Compound: CCCCCC(=O)c1ccc2c3c(sc2c1)-c1ccccc1P3(=O)c1ccccc1 (stereo not drawn)
- emission maximum (in ClCCl): 428 nm

Compound: CCC1=C(C)C2=Cc3c4ccccc4c4n3[B-](c3ccc5cc6ccccc6cc5c3)(Oc3ccccc3-4)[N+]2=C1C (stereo not drawn)
- emission maximum (in CC#N): 635 nm
- emission maximum (in CCCCCC): 636 nm
- emission maximum (in Cc1ccccc1): 641 nm
- emission maximum (in ClCCl): 639 nm

Compound: CCOc1ccc2c(-c3nc(-c4ccccc4F)no3)cc(=O)oc2c1
- emission maximum (in CCO): 465 nm
- emission maximum (in ClC(Cl)Cl): 453 nm

Compound: Cc1cc(-c2nnc(-c3ccccc3)o2)ccc1-n1c2ccccc2c2ccccc21
- emission maximum (in CCO): 445 nm
- emission maximum (in Cc1ccccc1): 382 nm

Compound: COc1ccc2cc(/C=C/c3ccccc3)c(=O)oc2c1
- emission maximum (in CC#N): 464 nm

Compound: Cc1ccc2c(nc3c(=O)n(C)c(=O)nc-3n2C)c1C
- emission maximum (in CC#N): 543 nm

Compound: CCCCCCCC1=C(C)C(=O)n2c1cc1[nH]c(C(=O)OC)c(C)c1c2=O
- emission maximum (in C1CCCCC1): 448 nm
- emission maximum (in CO): 500 nm
- emission maximum (in CS(C)=O): 482 nm
- emission maximum (in ClC(Cl)Cl): 448 nm
- emission maximum (in c1ccccc1): 441 nm

Compound: Oc1c(-c2ccco2)cccc1-c1nc2ccccc2s1
- emission maximum (in CCO): 575 nm
- emission maximum (in ClCCl): 577 nm
- emission maximum (in O): 569 nm

Compound: COC(=O)CCC1=CC(C#Cc2ccsc2)=[N+]2C1=Cc1c(CCC(=O)OC)cc(C#Cc3ccsc3)n1[B-]2(F)F
- emission maximum (in ClCCl): 653 nm

Compound: O=P1(c2ccccc2)C2=C(c3ccccc31)C(c1ccccc1)(c1ccccc1)c1cc(N(c3ccccc3)c3ccccc3)ccc12 (stereo not drawn)
- emission maximum (in CC#N): 594 nm
- emission maximum (in CO): 608 nm
- emission maximum (in Cc1ccccc1): 522 nm

Compound: CC1=CC(C)=[N+]2C1=C(c1ccc(C(=O)OC3C[C@@H]4CC[C@]3(C)C4(C)C)cc1)c1c(C)cc(C)n1[B-]2(F)F (stereo partly drawn)
- emission maximum (in Cc1ccccc1): 518 nm

Compound: CCCCCCOC(=O)/C=C/C1=CC2=C(c3c(C)cc(C)cc3C)c3cc(/C=C/C(=O)OCCCCCC)cn3[B-](F)(F)[N+]2=C1
- emission maximum (in ClCCl): 606 nm

Compound: COc1ccc2c(c1)CCC1=C(c3ccccc3)C3=C(c4ccc5cccc(O)c5n4)c4c(-c5ccccc5)c5c(n4[B-](F)(F)[N+]3=C12)-c1ccc(OC)cc1CC5
- emission maximum (in O): 680 nm

Compound: CC[n+]1c(-c2ccccc2)c2cc(N)ccc2c2ccc(-n3cccc3)cc21
- emission maximum (in O): 592 nm

Compound: COc1cc2cc(C#N)c3ccc4ccccc4c3c2cc1OC
- emission maximum (in ClC(Cl)Cl): 399 nm

Compound: CCCCn1c(-c2ccc(-c3nnc(-c4ccc(-c5nc6ccccc6n5CCCC)cc4)o3)cc2)nc2ccccc21
- emission maximum (in ClCCl): 407 nm

Compound: CCCCCCn1c2c(c3cc(-c4ccc5ccc6cccc7ccc4c5c67)ccc31)-c1c(c3cc(-c4ccc5ccc6cccc7ccc4c5c67)ccc3n1CCCCCC)-c1c(c3cc(-c4ccc5ccc6cccc7ccc4c5c67)ccc3n1CCCCCC)-c1c-2c2cc(-c3ccc4ccc5cccc6ccc3c4c56)ccc2n1CCCCCC
- emission maximum (in ClCCl): 382 nm

Compound: CCCCCCOc1cc2cc(=O)oc3ccc4cccc1c4c23
- emission maximum (in CC1CCCO1): 468 nm
